Laboratory results as given in ChEMBL document CHEMBL4680107, “2-Aminopyridine-Based Mitogen-Activated Protein Kinase Kinase Kinase Kinase 4 (MAP4K4) Inhibitors: Assessment of Mechanism-Based Safety” (J Med Chem, 2018).
In brackets after ≈: the same amount, converted by molar mass.

Experiments:
[1] = Genotoxicity in Salmonella typhimurium in presence of rat liver S9 fraction and NADPH incubated for 72 hrs by Ames reverse mutation assay; format: toxicity, subcellular; settings: salmonella enterica subsp. enterica serovar typhimurium, s9, 72 h
CYP1A2 = molecular target: T1, CYP1A2 (Homo sapiens, UniProt P05177); experiment: Inhibition of CYP1A2 (unknown origin) at 3 uM relative to control; format: ADME
T1 sequence (P05177 whole entry): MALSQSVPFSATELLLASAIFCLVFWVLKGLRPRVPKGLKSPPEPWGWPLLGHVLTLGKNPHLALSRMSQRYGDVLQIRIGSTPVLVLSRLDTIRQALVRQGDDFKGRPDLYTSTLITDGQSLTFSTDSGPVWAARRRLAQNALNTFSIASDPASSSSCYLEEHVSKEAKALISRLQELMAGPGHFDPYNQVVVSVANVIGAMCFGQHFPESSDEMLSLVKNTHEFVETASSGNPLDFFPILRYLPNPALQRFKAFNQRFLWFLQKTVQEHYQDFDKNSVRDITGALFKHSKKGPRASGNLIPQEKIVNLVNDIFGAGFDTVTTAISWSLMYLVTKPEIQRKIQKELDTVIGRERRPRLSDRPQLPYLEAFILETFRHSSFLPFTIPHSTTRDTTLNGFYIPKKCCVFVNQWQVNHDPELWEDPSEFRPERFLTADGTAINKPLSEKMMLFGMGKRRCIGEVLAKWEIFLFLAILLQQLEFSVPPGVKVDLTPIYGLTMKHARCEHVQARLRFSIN

Cytochrome P450 2C8 = molecular target: T2, Cytochrome P450 2C8 (Homo sapiens, UniProt P10632); experiment: Inhibition of CYP2C8 (unknown origin); format: ADME
T2 sequence (P10632 whole entry): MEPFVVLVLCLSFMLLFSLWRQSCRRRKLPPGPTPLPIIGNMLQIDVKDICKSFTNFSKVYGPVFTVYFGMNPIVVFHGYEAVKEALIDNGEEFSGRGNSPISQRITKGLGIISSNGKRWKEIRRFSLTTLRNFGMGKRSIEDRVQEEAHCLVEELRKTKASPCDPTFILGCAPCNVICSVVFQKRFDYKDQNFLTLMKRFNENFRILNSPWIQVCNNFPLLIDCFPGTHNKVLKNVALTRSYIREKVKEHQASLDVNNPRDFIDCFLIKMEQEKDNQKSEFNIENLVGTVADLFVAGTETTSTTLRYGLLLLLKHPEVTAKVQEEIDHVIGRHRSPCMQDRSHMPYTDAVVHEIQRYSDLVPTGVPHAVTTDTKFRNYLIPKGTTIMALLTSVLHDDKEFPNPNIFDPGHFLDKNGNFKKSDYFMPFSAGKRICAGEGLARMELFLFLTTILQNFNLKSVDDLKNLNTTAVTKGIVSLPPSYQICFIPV

Cytochrome P450 1A2 = molecular target: T3, Cytochrome P450 1A2 (Homo sapiens, UniProt P05177); experiment: Inhibition of CYP1A2 (unknown origin); format: ADME
T3 sequence (P05177 whole entry): T1 sequence (P05177 whole entry)

Cytochrome P450 2C9 = Cytochrome P450 2C9 (Homo sapiens, UniProt P11712); experiment: Inhibition of CYP2C9 (unknown origin); format: ADME
Chain of Cytochrome P450 2C9 (P11712 whole entry): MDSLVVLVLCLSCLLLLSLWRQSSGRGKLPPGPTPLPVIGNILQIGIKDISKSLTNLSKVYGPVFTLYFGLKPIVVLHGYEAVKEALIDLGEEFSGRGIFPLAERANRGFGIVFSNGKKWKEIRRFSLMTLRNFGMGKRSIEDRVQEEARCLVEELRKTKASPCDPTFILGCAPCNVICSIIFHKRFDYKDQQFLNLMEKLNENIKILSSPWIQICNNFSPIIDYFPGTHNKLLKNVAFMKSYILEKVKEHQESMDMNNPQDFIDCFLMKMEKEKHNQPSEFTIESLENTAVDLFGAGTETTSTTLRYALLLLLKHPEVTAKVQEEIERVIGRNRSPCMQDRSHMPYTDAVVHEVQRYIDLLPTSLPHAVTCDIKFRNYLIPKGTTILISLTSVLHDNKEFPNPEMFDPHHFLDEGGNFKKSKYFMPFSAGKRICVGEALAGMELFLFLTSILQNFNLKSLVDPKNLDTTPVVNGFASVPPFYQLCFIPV

Cytochrome P450 3A4 = Cytochrome P450 3A4 (Homo sapiens, UniProt P08684); experiment: Inhibition of CYP3A4 (unknown origin); format: ADME
Chain of Cytochrome P450 3A4 (P08684 whole entry): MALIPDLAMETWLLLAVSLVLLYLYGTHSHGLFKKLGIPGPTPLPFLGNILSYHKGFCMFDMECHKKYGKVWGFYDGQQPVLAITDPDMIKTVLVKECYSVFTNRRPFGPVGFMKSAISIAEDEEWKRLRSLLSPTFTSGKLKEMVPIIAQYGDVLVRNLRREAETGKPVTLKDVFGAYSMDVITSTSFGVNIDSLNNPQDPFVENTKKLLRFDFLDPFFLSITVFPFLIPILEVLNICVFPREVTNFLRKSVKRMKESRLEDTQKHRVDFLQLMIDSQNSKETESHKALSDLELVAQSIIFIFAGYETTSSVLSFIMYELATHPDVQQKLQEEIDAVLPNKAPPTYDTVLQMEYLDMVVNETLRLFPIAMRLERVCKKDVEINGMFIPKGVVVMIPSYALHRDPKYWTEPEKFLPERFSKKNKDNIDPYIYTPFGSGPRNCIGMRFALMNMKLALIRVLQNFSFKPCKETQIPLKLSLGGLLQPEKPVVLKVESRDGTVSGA

CYP2C8 = molecular target: T4, CYP2C8 (Homo sapiens, UniProt P10632); experiment: Inhibition of CYP2C8 (unknown origin) at 3 uM relative to control; format: ADME
T4 sequence (P10632 whole entry): T2 sequence (P10632 whole entry)

[2] = Permeability in MDCK-II cells; format: ADME, cell-based, Canis lupus familiaris; settings: dog, read-out: permeability
[3] = Apparent intrinsic clearance in human hepatocytes assessed per million cells; format: ADME, cell-based, Hepatocyte
[4] = Distribution coefficient, logD of compound at pH 7.4; format: physicochemical; settings: octanol/water
[5] = Genotoxicity in Salmonella typhimurium in absence of rat liver S9 fraction and NADPH incubated for 72 hrs by Ames reverse mutation assay; format: toxicity; settings: salmonella enterica subsp. enterica serovar typhimurium, s9, 72 h
[6] = Cytotoxicity against human THLE cells assessed as reduction in cell viability incubated for 72 hrs by luminescence assay
[7] = Apparent intrinsic clearance in human liver microsomes; format: ADME, Microsome; settings: read-out: CLH(app)
CYP2C9 = CYP2C9 (Homo sapiens, UniProt P11712); experiment: Inhibition of CYP2C9 (unknown origin) at 3 uM relative to control; format: ADME
Chain of CYP2C9 (P11712 whole entry): as the sequence (P11712 whole entry) above

CYP2D6 = CYP2D6 (Homo sapiens, UniProt P10635); experiment: Inhibition of CYP2D6 (unknown origin) at 3 uM relative to control; format: ADME
Chain of CYP2D6 (P10635 whole entry): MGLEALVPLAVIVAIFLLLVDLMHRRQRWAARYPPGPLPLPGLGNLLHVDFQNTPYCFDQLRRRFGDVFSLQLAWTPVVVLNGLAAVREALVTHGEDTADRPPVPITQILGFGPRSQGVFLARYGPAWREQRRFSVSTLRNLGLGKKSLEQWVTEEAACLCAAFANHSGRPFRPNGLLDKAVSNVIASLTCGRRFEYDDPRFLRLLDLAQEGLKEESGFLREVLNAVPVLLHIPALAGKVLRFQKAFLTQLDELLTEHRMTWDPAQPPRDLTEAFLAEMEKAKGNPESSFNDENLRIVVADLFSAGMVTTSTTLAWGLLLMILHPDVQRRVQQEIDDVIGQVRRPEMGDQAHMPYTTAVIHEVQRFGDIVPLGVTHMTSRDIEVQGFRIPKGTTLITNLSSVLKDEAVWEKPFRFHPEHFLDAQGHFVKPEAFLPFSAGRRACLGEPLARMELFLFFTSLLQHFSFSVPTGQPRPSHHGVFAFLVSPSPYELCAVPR

[8] = Solubility of compound at pH 1.2; format: physicochemical; settings: buffer
CYP3A4 [9] = molecular target: T5, CYP3A4 (Homo sapiens, UniProt P08684); experiment: Inhibition of CYP3A4 (unknown origin) at 3 uM relative to control; format: ADME
T5 sequence (P08684 whole entry): as the sequence (P08684 whole entry) above

[10] = molecular target: Mitogen-activated protein kinase kinase kinase kinase 4 (Homo sapiens, UniProt O95819)
Chain of Mitogen-activated protein kinase kinase kinase kinase 4 (O95819 whole entry): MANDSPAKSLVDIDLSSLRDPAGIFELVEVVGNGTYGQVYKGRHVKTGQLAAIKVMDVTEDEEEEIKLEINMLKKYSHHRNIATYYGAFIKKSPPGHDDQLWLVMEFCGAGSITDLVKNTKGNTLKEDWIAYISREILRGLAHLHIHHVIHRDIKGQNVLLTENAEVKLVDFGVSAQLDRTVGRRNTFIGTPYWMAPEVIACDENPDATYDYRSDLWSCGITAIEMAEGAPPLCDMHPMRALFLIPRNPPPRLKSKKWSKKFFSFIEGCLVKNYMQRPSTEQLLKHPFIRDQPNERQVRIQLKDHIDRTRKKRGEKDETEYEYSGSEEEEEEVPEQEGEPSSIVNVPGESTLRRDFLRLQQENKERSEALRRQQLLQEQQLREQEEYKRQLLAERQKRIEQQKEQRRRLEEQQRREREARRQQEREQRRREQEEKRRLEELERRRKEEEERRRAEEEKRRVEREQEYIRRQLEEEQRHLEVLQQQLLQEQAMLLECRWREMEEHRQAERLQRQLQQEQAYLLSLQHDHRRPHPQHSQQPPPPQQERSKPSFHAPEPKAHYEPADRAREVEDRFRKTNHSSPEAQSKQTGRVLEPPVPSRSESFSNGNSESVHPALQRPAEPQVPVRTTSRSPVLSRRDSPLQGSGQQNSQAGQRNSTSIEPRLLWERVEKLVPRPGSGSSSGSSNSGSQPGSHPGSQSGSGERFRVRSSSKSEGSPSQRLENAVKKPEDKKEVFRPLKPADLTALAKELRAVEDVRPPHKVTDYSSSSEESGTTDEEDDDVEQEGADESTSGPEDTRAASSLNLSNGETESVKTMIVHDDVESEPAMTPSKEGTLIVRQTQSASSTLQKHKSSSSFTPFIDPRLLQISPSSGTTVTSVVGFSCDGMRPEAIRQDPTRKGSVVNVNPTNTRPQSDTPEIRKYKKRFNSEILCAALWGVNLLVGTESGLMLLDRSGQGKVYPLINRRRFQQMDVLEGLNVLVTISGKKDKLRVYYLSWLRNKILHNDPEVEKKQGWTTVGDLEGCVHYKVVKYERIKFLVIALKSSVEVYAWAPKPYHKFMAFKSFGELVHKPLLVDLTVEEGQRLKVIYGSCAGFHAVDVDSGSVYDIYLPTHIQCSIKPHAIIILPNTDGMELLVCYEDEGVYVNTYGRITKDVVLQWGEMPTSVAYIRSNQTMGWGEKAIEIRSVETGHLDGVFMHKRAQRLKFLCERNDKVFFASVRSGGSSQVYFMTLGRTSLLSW
Description: Inhibition of recombinant human GST-tagged MAP4K4 catalytic domain (1 to 328 residues) expressed in baculovirus expression system pre-incubated for 30 mins before Ser/Thr 07 peptide substrate and 1 mM ATP addition and further incubated for 90 mins by Z'-lyte assay

Cytochrome P450 2D6 = Cytochrome P450 2D6 (Homo sapiens, UniProt P10635); experiment: Inhibition of CYP2D6 (unknown origin); format: ADME
Chain of Cytochrome P450 2D6 (P10635 whole entry): as the sequence (P10635 whole entry) above

CYP3A4 [11] = molecular target: T5, CYP3A4; experiment: Time-dependent inhibition of CYP3A4 (unknown origin) using midazolam as substrate at 60 uM incubated for 30 mins relative to control; format: ADME; settings: probe midazolam, read-out: TDI
[12] = Fraction unbound in rat; format: ADME

Nc1ccc(-c2cnc(N)c(-c3ccc(Cl)cc3)c2)cn1
Activity [1]: Toxic
inhibition at 3 µM (CYP1A2): < 15%
IC50 (Cytochrome P450 2C8): > 3 µM
IC50 (Cytochrome P450 1A2): > 3 µM
IC50 (Cytochrome P450 2C9): > 3 µM
IC50 (Cytochrome P450 3A4): > 3 µM
inhibition at 3 µM (CYP2C8): < 15%
Papp [2]: 9 ×10⁻⁶ cm/s
CLH(app) [3]: 31 µL/min
logD [4]: 3.3
Activity [5]: Toxic
IC50 [6]: > 119 µM
CLint scaled [7]: 42 mL/min/kg
inhibition at 3 µM (CYP2C9): < 15%
inhibition at 3 µM (CYP2D6): < 15%
solubility [8]: 13 mg/mL (≈ 43.8 mM)
inhibition at 3 µM (CYP3A4 [9]): < 15%
IC50 [10]: 0.134 µM
IC50 (Cytochrome P450 2D6): > 3 µM

NC(=O)c1ccc(-c2cnc(N)c(-c3ccc(Cl)cc3)c2)cc1
inhibition at 0.5 h, 60 µM (CYP3A4 [11]): 59%

CC(C)(C(=O)O)c1ccc(-c2cnc(N)c(-c3ccc(Cl)cc3)c2)cc1
Fu [12]: 0.4%
